From article PMC12735921, “Evaluation of Antiproliferative Activity and Molecular Modeling Studies of Some Novel Benzimidazolone-Bridged Hybrid Compounds” (Pharmaceuticals, 2025)
“And” between values parts separate entries of the source, which are not always exact repeats. Equal entries are not always repeated. Marks after values point to notes of the source that are not given here.

What was measured:
MCF-7 cells [1] = experiment: Intracellular GSH/GSSG ratio, MCF-7; type: cell-based, human; conditions: MCF-7, IC50 concentration of compound, 48 h; H2O2 positive control; mean ± SD, n = 3
Method: (§1) Intracellular reduced (GSH) and oxidized (GSSG) glutathione levels were measured using the GSH/GSSG Ratio Detection Assay Kit (Cayman Chemical, Ann Arbor, MI, USA, Cat. No: 703002) according to the manufacturer’s protocol. […] After treatment, cells were washed with cold PBS and lysed with MES buffer provided in the kit.
(§2) To prevent oxidation of GSH to GSSG during processing, samples were deproteinized using the supplied metaphosphoric acid solution and neutralized accordingly. Total glutathione and GSSG levels were measured separately by adding the appropriate buffers and reagents to the wells of a 96-well plate, followed by the addition of DTNB recycling reagent and glutathione reductase. Absorbance was read at 405 nm using a microplate reader (BMG Labtech, Germany). The amount of GSH was calculated by subtracting 2 × GSSG from the total glutathione, and the GSH/GSSG ratio was used to assess intracellular redox status.

A549 cells [2] = experiment: Total oxidative status (TOS), A549; type: cell-based, human; conditions: A549, IC50 concentration of compound, 48 h; H2O2 250 µM positive control; mean ± SD, n = 3
Method: (§3) TOS were evaluated using a commercially available kit (Rel Assay Diagnostics®, Gaziantep, Turkey) according to the manufacturer’s instructions. […] The TOS assay quantifies oxidizing agents based on their ability to convert an iron (II) ion chelator complex to iron (III) ions. The results were calibrated against hydrogen peroxide (H2O2, 250 µM) as a positive control for 48 h and expressed as µmol H2O2 equivalents per liter. The analysis was performed in three independent biological replicates (n = 3).

HeLa cells [3] = experiment: Total oxidative status (TOS), HeLa; type: cell-based, human; conditions: IC50 concentration of compound, 48 h, H2O2 250 µM positive control, mean ± SD, n = 3
Method: as §3

HeLa cells [4] = experiment: Cell cycle analysis (PI staining, flow cytometry), HeLa; type: cell-based, human; conditions: IC50 concentration, 48 h, mean ± SEM, n = 3
Method: (§4) Cell cycle distribution was assessed by propidium iodide (PI) staining and flow cytometry. HeLa, MCF-7, and A549 cells were seeded in 6-well plates at a density of 1 × 10^5 cells per well and allowed to attach overnight. […] Following exposure, both adherent and floating cells were collected, washed twice with cold phosphate-buffered saline (PBS, pH 7.4), and fixed overnight in 70% cold ethanol at 4 °C. After fixation, the cells were centrifuged and resuspended in 500 µL of PI/RNase staining solution containing 50 µg/mL PI and 100 µg/mL RNase A (Sigma-Aldrich®, St. Louis, MO, USA), followed by incubation in the dark for 30 min at 37 °C. The stained samples were analyzed using a Muse™ Cell Analyzer (Merck, Millipore, Germany) equipped with a 488 nm excitation laser and a 617 nm emission filter. A minimum of 10,000 events per sample were acquired after exclusion of debris and doublets via FSC-A vs. FSC-H gating. The DNA content histograms were generated automatically, and cell populations were expressed as percentages of G0/G1, S, and G2/M phases using the Muse™ Cell Cycle Analysis Software 1.5.0.0. All assays were conducted in triplicate biological repeats (n = 3), and results were reported as mean ± SEM.

[5] = tested on: A549, MCF-7, and HeLa cells; experiment: MTT cell viability assay, ranges stated across the cancer cell lines; type: cell-based; conditions: Homo sapiens, range over the three cancer cell lines, 48 h
Method: Cell viability assay was performed on the human lung cancer (A549) (ATCC CCL-185), human breast cancer (MCF-7) (ATCC-HTB-22), cervical cancer (HeLa) (ATCC-CCL-2), and human embryonic kidney 293 (HEK293) (ATCC-CRL-1573) cell lines, which were purchased from Deutsche Sammlung von Mikroorganismen und Zellkulturen (DSMZ, Braunschweig, Germany). The cells were maintained in Dulbecco’s modified Eagle’s medium (DMEM), supplemented with 10% fetal bovine serum (FBS), 2 mM L-glutamine, 100 U/mL penicillin, and 100 mg/L streptomycin (Biochrom AG, Berlin, Germany) at 37 °C in a humidified atmosphere of 5% CO2.
The cytotoxic effect was determined by the MTT (3-(4,5-dimethyl-2-thiazolyl)-2,5-diphenyl-2H-tetrazolium bromide) cell viability assay. Cells were seeded at an initial concentration of 1 × 10^5 cells/mL in 96-well microplates. […] After the incubation period, the formed formazan crystals were dissolved in dimethyl sulfoxide (DMSO), and the optical density (OD) of the compounds was measured at 570 nm using a spectrophotometer (BMG Labtech, Ortenberg, Germany). Cytotoxicity was expressed as an increase in the mean percentage of cytotoxicity relative to the unexposed control ± standard deviation (SD). […] IC50 was calculated by fitting the data to a sigmoidal curve using a four-parameter logistic model and was presented as an average of three independent measurements. […]

MCF-7 cells [6] = experiment: LDH leakage assay, MCF-7; type: cell-based, human; conditions: MCF-7, IC50 concentration of compound, 48 h; H2O2 positive control; mean ± SD, n = 3
Method: (§5) One hundred microliters of culture medium was transferred to a new 96-well plate. One hundred microliters of LDH reaction solution was added to each well, and absorbance was measured at 490 nm using an ELISA plate reader (BMG Labtech, Ortenberg, Germany) after 30 min.

MCF-7 cells [7] = experiment: Cell cycle analysis (PI staining, flow cytometry), MCF-7; type: cell-based, human; conditions: MCF-7, IC50 concentration, 48 h, mean ± SEM, n = 3
Method: as §4

HeLa cells [8] = experiment: LDH leakage assay, HeLa; type: cell-based, human; conditions: IC50 concentration of compound, 48 h, H2O2 positive control, mean ± SD, n = 3
Method: as §5

HeLa cells [9] = experiment: Intracellular GSH/GSSG ratio, HeLa; type: cell-based, human; conditions: IC50 concentration of compound, 48 h, H2O2 positive control, mean ± SD, n = 3
Method: as §1, §2

A549 cells [10] = experiment: Cell cycle analysis (PI staining, flow cytometry), A549; type: cell-based, human; conditions: A549, IC50 concentration, 48 h, mean ± SEM, n = 3
Method: as §4

HeLa cells [11] = experiment: MTT cell viability assay, HeLa; type: cell-based, human
Summary of the method: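 Cells exposed to compounds at 0.5–200 µM for 48 h in DMEM with 10% FBS at 37 °C, 5% CO2; formazan dissolved in DMSO and read at 570 nm. Cytotoxicity relative to untreated control; IC50 from four-parameter logistic fit, mean of three independent measurements, triplicate samples.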

IC50 [5]: 28.3 to 31.2 µM
IC50 (HeLa cells [11]; Homo sapiens, HeLa, MTT, 48 h, mean ± SD, n = 3): 31.2 ± 1.8 µM
Structure (SMILES): O=C(O)Cn1c(=O)n(CC(=O)O)c2cc(Cl)c(Cl)cc21 [Compound 6, 2,2′-(5,6-Dichloro-2-oxo-1H-benzo[d]imidazole-1,3(2H)-diyl)diacetic Acid]
GSH/GSSG (MCF-7 cells [1]): 12.1 ± 1.2 nmol/mg Protein and 12.1 ± 1.2 ^a,b nmol/mg Protein
TOS (A549 cells [2]): 7.3 ± 0.5 ^a,b µmol H2O2 eq/L
TOS (HeLa cells [3]): 7.8 ± 0.6 µmol H2O2 eq/L and 7.8 ± 0.6 ^a,b µmol H2O2 eq/L
cells in G0/G1 phase (HeLa cells [4]): 42.3 ± 2.3%
cells in G2/M phase (HeLa cells [4]): 32.9 ± 1.6%
cells in S phase (HeLa cells [4]): 24.8 ± 1.5%
LDH (MCF-7 cells [6]): 22.7 ± 1.8 µU/mL and 22.7 ± 1.8 ^a,b µU/mL
cells in G0/G1 phase (MCF-7 cells [7]): 66.1 ± 1.9%
cells in G2/M phase (MCF-7 cells [7]): 14.9 ± 1.3%
cells in S phase (MCF-7 cells [7]): 19.0 ± 1.4%
LDH (HeLa cells [8]): 27.3 ± 2.5 µU/mL and 27.3 ± 2.5 ^a,b µU/mL
GSH/GSSG (HeLa cells [9]): 10.6 ± 1.1
cells in G0/G1 phase (A549 cells [10]): 59.8 ± 2.0%
cells in G2/M phase (A549 cells [10]): 19.6 ± 1.4%
cells in S phase (A549 cells [10]): 20.6 ± 1.5%
HeLa Selectivity Index (SI) (HeLa cells [11]; SI = IC50 (HEK 293)/IC50 (HeLa)): 2
